Experimental data taken from patent EP0092830A2, “Cephalosporin derivatives, process for their preparation, pharmaceutical compositions containing them and their application” (CIBA-GEIGY AG, priority 1982, dated 1983).

Columns and labels:
[1] = tested on: Staphylococcus aureus 10 B; experiment: chemotherapeutic efficacy in vivo against systemic infection in mice (method of Zak et al.); conditions: systemic infection in female SPF, MF2 mice; for ED50 Staphylococcus aureus 10 B: s.c.; for ED50: Staphylococcus aureus, 10B
Text: (§1) B. Die chemotherapeutische Wirksamkeit in vivo gegen systemische Infektionen in weiblichen SPF, MF2 Mäusen wurde nach der Methode von Zak, 0. et al., 1979, Drugs Exptl. Clin. Res. 5, 45-59, ermittelt. Die gefundenen EDS50-Werte in Milligramm Substanz pro Kilogramm Maus (mg/kg) für eine Anzahl von Mikroorganismen werden für die oral (p.o.) oder subcutan (s.c.) applizierten, Testverbindungen in der Tabelle 2 angegeben.

[2] = tested on: Escherichia coli 205; experiment: as above; conditions: systemic infection in female SPF, MF2 mice
Text: as §1

[3] = Escherichia coli, 205, po, p.o.
[4] = Escherichia coli, 205, sc, s.c.

Compound	ED50 Staphylococcus aureus 10 B [1] [mg/kg]	ED50 Escherichia coli 205 ([2]; p.o.) [mg/kg]	ED50 Escherichia coli 205 ([2]; s.c.)	ED50 ([1]; po) [mg/kg]	ED50 ([1]; sc) [mg/kg]	ED50 [2, 3] [mg/kg]	ED50 [2, 4] [mg/kg]
NCCS(=O)(=O)NC(C(=O)N[C@@H]1C(=O)N2C(C(=O)[O-])=C(CSc3nnnn3CS(=O)(=O)O)CS[C@H]12)c1csc(N)n1.[Na+] (stereo partly drawn) [Testverbindung 6, 3-(1-Sulfomethyl-1H-tetrazol-5-ylthiomethyl)-7ß-[(2R,S)-2-(2-aminoäthansulfonylamino)-2-(2-aminothiazol-4-yl)-acetamido]-3-cephem-4-carbonsäurematriumsalz]	>30	10	6,0 mg/kg	–	–	–	–
CC(=O)OCC1=C(C(=O)O)N2C(=O)[C@@H](NC(=O)C(NS(=O)(=O)CCNS(=O)(=O)c3ccc(N)cc3)c3csc(N)n3)[C@H]2SC1 (stereo partly drawn) [Testverbindung 47]	–	–	–	100	5	> 30	2.8
CC(=O)NCCS(=O)(=O)NC(C(=O)N[C@@H]1C(=O)N2C(C(=O)O)=C(CSc3nnnn3C)CS[C@H]12)c1csc(N)n1 (stereo partly drawn) [Testverbindung 43]	–	–	–	–	50	8	1
CS(=O)(=O)NC(C(=O)N[C@@H]1C(=O)N2C(C(=O)O)=C(CSc3nnnn3CS(=O)(=O)O)CS[C@H]12)c1csc(N)n1 (stereo partly drawn) [Testverbindung 44]	–	–	–	–	85	–	< 1
CS(=O)(=O)NC(C(=O)N[C@@H]1C(=O)N2C(C(=O)[O-])=C(C[n+]3ccc(C(N)=O)cc3)CS[C@H]12)c1csc(N)n1 (stereo partly drawn) [Testverbindung 9, 3-(4-Carbamoylpyridiniomethyl)-7ß-[(2R,S)-2-(2-aminothiazol-4-yl)-2-methansulfonylaminoacetamido]-3-cephem-4-carbonsäure]	55	–	25 mg/kg	–	–	–	–
NCCS(=O)(=O)NC(C(=O)N[C@@H]1C(=O)N2C(C(=O)[O-])=C(CSc3nnnn3CC(=O)O)CS[C@H]12)c1csc(N)n1.[Na+] (stereo partly drawn) [Testverbindung 5, 3-(1-Carboxymethyl-1H-tetrazol-5-ylthiomethyl)-7ß-[(2R,S)-2-(2-aminoäthansulfonylamino)-2-(2-aminothiazol-4-yl)-acetamido]-3-cephem-4-carbonsäure-natriumsalz]	78	2	0,45 mg/kg	–	–	–	–
CC(=O)OCC1=C(C(=O)O)N2C(=O)[C@@H](NC(=O)C(NS(=O)(=O)CCNC=O)c3csc(N)n3)[C@H]2SC1 (stereo partly drawn) [Testverbindung 39]	–	–	–	–	10	5.5	0.8
CS(=O)(=O)NCCS(=O)(=O)NC(C(=O)N[C@@H]1C(=O)N2C(C(=O)O)=C(COC(N)=O)CS[C@H]12)c1csc(N)n1 (stereo partly drawn) [Testverbindung 45]	–	–	–	90	55	–	–
C=CC(=O)NCCS(=O)(=O)NC(C(=O)N[C@@H]1C(=O)N2C(C(=O)O)=C(CSc3nnnn3C)CS[C@H]12)c1csc(N)n1 (stereo partly drawn) [Testverbindung 41]	–	–	–	–	24	10	2
CN(C)CCn1nnnc1SCC1=C(C(=O)O)N2C(=O)[C@@H](NC(=O)C(NS(=O)(=O)CCN)c3csc(N)n3)[C@H]2SC1 (stereo partly drawn) [Beispiel 20, 3-[1-(2-Dimethylaminoäthyl)-1H-tetrazol-5-ylthiomethyl]-7ß-[(2R,S)-2-(2-aminoäthansulfonylamino)-2-(2-aminothiazol-4-yl)-acetamido]-3-cephem-4-carbonsäure]	>30	8	0,8 mg/kg	–	–	–	–
NC(=O)OCC1=C(C(=O)O)N2C(=O)C(NC(=O)C(NS(=O)(=O)CCNS(=O)(=O)c3ccc(N)cc3)c3csc(N)n3)C2SC1 (stereo not drawn) [Testverbindung 46]	–	–	–	–	9	–	< 1
CS(=O)(=O)N[C@H](C(=O)N[C@@H]1C(=O)N2C(C(=O)O)=C(COC(N)=O)CS[C@H]12)c1csc(N)n1 [Testverbindung 40]	–	–	–	–	3	0.9	0.1
C=CC(=O)NCCS(=O)(=O)N[C@H](C(=O)N[C@@H]1C(=O)N2C(C(=O)O)=C(COC(N)=O)CS[C@H]12)c1csc(N)n1 [Testverbindung 42]	–	–	–	–	15	2.5	0.1
